Molecular target: recombinant human Nav1.7 (Homo sapiens (Human), UniProt Q15858)
Assay: FRET-based membrane potential assay, recombinant human sodium channel Nav1.7
Assay type: cell-based
Settings: HEK293 cells stably expressing recombinant human Nav1.7; veratridine + scorpion venom depolarization; read-out: FRET-Membrane Potential Nav1.7 IC50
How it was run: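 Channel activation used veratridine at its EC80, set by a dilution curve each experiment, together with Leiurus scorpion venom, added 3 min after compound. Membrane-potential ratio signals from FLIPR Tetra in HEPES-buffered HBSS were fitted to a four-parameter Hill equation for percent inhibition and IC50.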

Chain of recombinant human Nav1.7 (Q15858 whole entry): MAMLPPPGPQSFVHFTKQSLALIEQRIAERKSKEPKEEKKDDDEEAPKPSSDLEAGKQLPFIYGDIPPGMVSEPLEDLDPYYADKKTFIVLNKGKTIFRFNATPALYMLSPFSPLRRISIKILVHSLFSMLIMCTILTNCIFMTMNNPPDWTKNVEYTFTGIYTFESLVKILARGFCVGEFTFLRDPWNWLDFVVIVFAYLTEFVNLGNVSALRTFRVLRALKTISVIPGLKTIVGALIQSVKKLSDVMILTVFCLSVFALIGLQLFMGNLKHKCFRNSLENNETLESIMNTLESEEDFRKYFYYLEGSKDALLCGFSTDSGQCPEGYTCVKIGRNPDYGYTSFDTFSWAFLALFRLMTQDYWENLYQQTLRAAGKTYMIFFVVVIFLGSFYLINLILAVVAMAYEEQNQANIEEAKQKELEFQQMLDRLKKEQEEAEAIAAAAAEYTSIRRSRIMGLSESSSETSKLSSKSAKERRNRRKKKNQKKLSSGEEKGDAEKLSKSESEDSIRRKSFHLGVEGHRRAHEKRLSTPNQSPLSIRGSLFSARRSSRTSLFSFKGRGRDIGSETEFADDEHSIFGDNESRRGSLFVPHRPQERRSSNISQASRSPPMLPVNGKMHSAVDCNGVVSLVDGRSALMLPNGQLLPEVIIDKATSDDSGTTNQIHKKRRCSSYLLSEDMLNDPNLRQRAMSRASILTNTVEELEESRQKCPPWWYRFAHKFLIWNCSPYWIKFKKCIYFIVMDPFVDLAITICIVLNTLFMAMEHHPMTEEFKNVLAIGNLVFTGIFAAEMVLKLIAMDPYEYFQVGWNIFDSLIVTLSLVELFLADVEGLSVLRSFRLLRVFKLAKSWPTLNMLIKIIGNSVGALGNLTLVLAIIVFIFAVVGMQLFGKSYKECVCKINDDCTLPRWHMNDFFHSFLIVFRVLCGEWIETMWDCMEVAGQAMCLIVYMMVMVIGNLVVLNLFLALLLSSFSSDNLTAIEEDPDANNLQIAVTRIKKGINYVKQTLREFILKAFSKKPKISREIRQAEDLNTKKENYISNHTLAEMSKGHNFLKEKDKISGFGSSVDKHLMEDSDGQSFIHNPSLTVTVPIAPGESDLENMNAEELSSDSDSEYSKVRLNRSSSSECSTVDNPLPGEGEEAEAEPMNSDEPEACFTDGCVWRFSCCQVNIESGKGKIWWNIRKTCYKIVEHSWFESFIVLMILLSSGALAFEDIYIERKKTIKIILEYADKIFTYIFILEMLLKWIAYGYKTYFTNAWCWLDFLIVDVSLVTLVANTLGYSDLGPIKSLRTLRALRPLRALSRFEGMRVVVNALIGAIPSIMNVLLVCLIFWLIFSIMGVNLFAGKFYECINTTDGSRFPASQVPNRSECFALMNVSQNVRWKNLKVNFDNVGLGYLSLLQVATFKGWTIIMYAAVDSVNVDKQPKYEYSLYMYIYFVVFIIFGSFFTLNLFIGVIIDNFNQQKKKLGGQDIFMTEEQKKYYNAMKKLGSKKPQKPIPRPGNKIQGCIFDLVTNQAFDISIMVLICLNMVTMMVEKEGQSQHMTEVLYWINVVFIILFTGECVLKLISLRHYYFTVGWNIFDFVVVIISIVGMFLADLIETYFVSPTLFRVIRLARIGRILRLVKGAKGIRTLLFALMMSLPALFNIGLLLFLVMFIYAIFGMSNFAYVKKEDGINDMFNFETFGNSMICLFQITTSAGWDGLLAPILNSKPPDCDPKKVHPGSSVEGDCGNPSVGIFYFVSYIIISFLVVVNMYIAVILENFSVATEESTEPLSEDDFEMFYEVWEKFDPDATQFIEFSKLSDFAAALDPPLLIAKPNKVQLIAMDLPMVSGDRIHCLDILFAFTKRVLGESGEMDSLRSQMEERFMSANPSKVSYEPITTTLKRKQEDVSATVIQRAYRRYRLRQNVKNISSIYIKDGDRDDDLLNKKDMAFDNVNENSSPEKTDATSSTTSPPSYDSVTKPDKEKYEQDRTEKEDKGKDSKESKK

Compound	IC50
CC(=O)N1CCN(C(=O)c2ccc3cc(Oc4ccc(C(F)(F)F)cn4)ccc3n2)CC1 [Example 218, 1-{4-[(6-{[5-(trifluoromethyl)pyridin-2-yl]oxy}quinolin-2-yl)carbonyl]piperazin-1-yl}ethanone]	> 20 µM
O=C(c1ccc2cc(Oc3ccc(C(F)(F)F)cn3)ccc2n1)N1CC=CC1 [Example 220, 2,5-dihydro-1H-pyrrol-1-yl(6-{[5-(trifluoromethyl)pyridin-2-yl]oxy}quinolin-2-yl)methanone]	2 µM
O=C(c1ccc2cc(Oc3ccc(C(F)(F)F)cn3)ccc2n1)N1CCc2ccncc2C1 [Example 222, 3,4-dihydro-2,7-naphthyridin-2(1H)-yl(6-{[5-(trifluoromethyl)pyridin-2-yl]oxy}quinolin-2-yl)methanone]	2.15 µM
O=C(c1ccc2cc(Oc3ccc(C(F)(F)F)cn3)ccc2n1)N1C[C@@H](O)C[C@@H]1c1cc(F)ccc1F [Example 223, [(2R,4S)-2-(2,5-difluorophenyl)-4-hydroxypyrrolidin-1-yl](6-{[5-(trifluoromethyl)pyridin-2-yl]oxy}quinolin-2-yl)methanone]	2.79 µM
O=C(c1ccc2cc(Oc3ccc(C(F)(F)F)cn3)ccc2n1)N1CC[C@H](NS(=O)(=O)c2ccc(C(F)(F)F)cc2)[C@H]1c1ccccc1 [Example 225, N-{(2R,3S)-2-phenyl-1-[(6-{[5-(trifluoromethyl)pyridin-2-yl]oxy}quinolin-2-yl)carbonyl]pyrrolidin-3-yl}-4-(trifluoromethyl)benzenesulfonamide]	> 20 µM
CC(=O)c1ccc(Oc2ccc3nc(C(=O)N4CCNCC4)ccc3c2)nc1 [Example 226, 1-(6-{[2-(piperazin-1-ylcarbonyl)quinolin-6-yl]oxy}pyridin-3-yl)ethanone]	> 20 µM
O=C(c1ccc2cc(Oc3ccc(C(F)(F)F)cn3)ccc2n1)N1CCS(=O)(=O)CC1 [Example 227, (1,1-dioxidothiomorpholin-4-yl)(6-{[5-(trifluoromethyl)pyridin-2-yl]oxy}quinolin-2-yl)methanone]	2.94 µM
CC(C)(C)N1CCN(C(=O)c2ccc3cc(Oc4ccc(C(F)(F)F)cn4)ccc3n2)CC1 [Example 228, (4-tert-butylpiperazin-1-yl)(6-{[5-(trifluoromethyl)pyridin-2-yl]oxy}quinolin-2-yl)methanone]	1.15 µM
O=C(c1ccc2cc(Oc3ccc(C(F)(F)F)cn3)ccc2n1)N1CC2(CCNCC2)C1 [Example 232, 2,7-diazaspiro[3.5]non-2-yl(6-{[5-(trifluoromethyl)pyridin-2-yl]oxy}quinolin-2-yl)methanone]	17.4 µM
O=C(c1ccc2cc(Oc3ccc(C(F)(F)F)cn3)ccc2n1)N1CCCNC1 [Example 233, tetrahydropyrimidin-1(2H)-yl(6-{[5-(trifluoromethyl)pyridin-2-yl]oxy}quinolin-2-yl)methanone]	0.586 µM
O=C(c1ccc2cc(Oc3ccc(C(F)(F)F)cn3)ccc2n1)N1CCNC[C@H]1CO [Example 234, [(2S)-2-(hydroxymethyl)piperazin-1-yl](6-{[5-(trifluoromethyl)pyridin-2-yl]oxy}quinolin-2-yl)methanone]	2.87 µM
CNS(=O)(=O)N1CCN(C(=O)c2ccc3cc(Oc4ccc(C(F)(F)F)cn4)ccc3n2)CC1 [Example 235, N-methyl-4-[(6-{[5-(trifluoromethyl)pyridin-2-yl]oxy}quinolin-2-yl)carbonyl]piperazine-1-sulfonamide]	2.36 µM
O=C(c1ccc2cc(Oc3ccc(C(F)(F)F)cn3)ccc2n1)N1CCCCCC1 [Example 238, azepan-1-yl(6-{[5-(trifluoromethyl)pyridin-2-yl]oxy}quinolin-2-yl)methanone]	1.54 µM
CNC(=O)[C@@H]1CCCN1C(=O)c1ccc2cc(Oc3ccc(C(F)(F)F)cn3)ccc2n1 [Example 239, N-methyl-1-[(6-{[5-(trifluoromethyl)pyridin-2-yl]oxy}quinolin-2-yl)carbonyl]-L-prolinamide]	> 20 µM
O=C(c1ccc2cc(Oc3ccc(C(F)(F)F)cn3)ccc2n1)N1CCC2(CC1)OCCO2 [Example 240, 1,4-dioxa-8-azaspiro[4.5]dec-8-yl(6-{[5-(trifluoromethyl)pyridin-2-yl]oxy}quinolin-2-yl)methanone]	2.01 µM
O=C(c1ccc2cc(Oc3ccc(C(F)(F)F)cn3)ccc2n1)N1C[C@H]2C[C@@H]1CN2 [Example 241, (1R,4R)-2,5-diazabicyclo[2.2.1]hept-2-yl(6-{[5-(trifluoromethyl)pyridin-2-yl]oxy}quinolin-2-yl)methanone]	1.85 µM
O=C(c1ccc2cc(Oc3ncccn3)ccc2n1)N1CCNCC1 [Example 242, piperazin-1-yl[6-(pyrimidin-2-yloxy)quinolin-2-yl]methanone]	> 20 µM
O=C(c1ccc2cc(Oc3ccc(C(F)(F)F)cn3)ccc2n1)N1CCNC[C@@H]1CO [Example 243, [(2R)-2-(hydroxymethyl)piperazin-1-yl](6-{[5-(trifluoromethyl)pyridin-2-yl]oxy}quinolin-2-yl)methanone]	> 20 µM
O=C(c1ccc2cc(Oc3ncc(F)cn3)ccc2n1)N1CCNCC1 [Example 244, {6[(5-fluoropyrimidin-2-yl)oxy]quinolin-2-yl}(piperazin-1-yl)methanone]	> 20 µM
O=C(c1ccc2cc(Oc3ccc(C(F)(F)F)nn3)ccc2n1)N1CCNCC1 [Example 246, piperazin-1-yl(6-{[6-(trifluoromethyl)pyridazin-3-yl]oxy}quinolin-2-yl)methanone]	19.8 µM
N[C@H]1CC[C@@H]2CN(C(=O)c3ccc4cc(Oc5ccc(C(F)(F)F)cn5)ccc4n3)C[C@@H]21 [Example 248, [(3aR,4S,6aS)-4-aminohexahydrocyclopenta[c]pyrrol-2(1H)-yl](6-{[5-(trifluoromethyl)pyridin-2-yl]oxy}quinolin-2-yl)methanone]	17.3 µM
O=C(c1ccc2cc(Oc3ccc(C(F)(F)F)cn3)ccc2n1)N1CCN(C2COC2)CC1 [Example 252, [4-(oxetan-3-yl)piperazin-1-yl](6-{[5-(trifluoromethyl)pyridin-2-yl]oxy}quinolin-2-yl)methanone]	> 20 µM
O=C(c1ccc2cc(Oc3ccc(C(F)(F)F)cn3)ccc2n1)N1CCc2ccccc2C1 [Example 253, 3,4-dihydroisoquinolin-2(1H)-yl(6-{[5-(trifluoromethyl)pyridin-2-yl]oxy}quinolin-2-yl)methanone]	> 20 µM
CS(=O)(=O)C1CCN(C(=O)c2ccc3cc(Oc4ccc(C(F)(F)F)cn4)ccc3n2)CC1 [Example 254, [4-(methylsulfonyl)piperidin-1-yl](6-{[5-(trifluoromethyl)pyridin-2-yl]oxy}quinolin-2-yl)methanone]	13.8 µM
CC1(O)CCN(C(=O)c2ccc3cc(Oc4ccc(C(F)(F)F)cn4)ccc3n2)CC1 [Example 255, (4-hydroxy-4-methylpiperidin-1-yl)(6-{[5-(trifluoromethyl)pyridin-2-yl]oxy}quinolin-2-yl)methanone]	12.1 µM

Same assay, conditions: read-out: FRET-Membrane Potential Nav1.7 IC50

Compound	IC50
O=C(c1ccc2cc(Oc3ccc(C(F)(F)F)cn3)ccc2n1)N1CCSCC1 [Example 221, thiomorpholin-4-yl(6-{[5-(trifluoromethyl)pyridin-2-yl]oxy}quinolin-2-yl)methanone]	2.79 µM
O=C(c1ccc2cc(Oc3ccc(C(F)(F)F)cn3)ccc2n1)N1CCCC1c1ccc(C(F)(F)F)cc1 (stereo not drawn) [Example 224, {2-[4-(trifluoromethyl)phenyl]pyrrolidin-1-yl}(6-{[5-(trifluoromethyl)pyridin-2-yl]oxy}quinolin-2-yl)methanone]	> 20 µM
O=C(N[C@@H]1CC[C@H]2CN(Cc3ccccc3)C[C@H]21)c1ccc2cc(Oc3ccc(C(F)(F)F)cn3)ccc2n1 [Example 230, N-[(3aS,4R,6aR)-2-benzyloctahydrocyclopenta[c]pyrrol-4-yl]-6-{[5-(trifluoromethyl)pyridin-2-yl]oxy}quinoline-2-carboxamide]	0.259 µM
CC(C)N1CCN(C(=O)c2ccc3cc(Oc4ccc(C(F)(F)F)cn4)ccc3n2)CC1 [Example 231, (4-isopropylpiperazin-1-yl)(6-{[5-(trifluoromethyl)pyridin-2-yl]oxy}quinolin-2-yl)methanone]	0.783 µM
CCNS(=O)(=O)N1CCN(C(=O)c2ccc3cc(Oc4ccc(C(F)(F)F)cn4)ccc3n2)CC1 [Example 236, N-ethyl-4-[(6-{[5-(trifluoromethyl)pyridin-2-yl]oxy}quinolin-2-yl)carbonyl]piperazine-1-sulfonamide]	1.01 µM
O=C(c1ccc2cc(Oc3ccc(C(F)(F)F)cn3)ccc2n1)N1CCC[C@H]1CO [Example 237, [(2S)-2-(hydroxymethyl)pyrrolidin-1-yl](6-{[5-(trifluoromethyl)pyridin-2-yl]oxy}quinolin-2-yl)methanone]	3.07 µM
O=C(c1ccc2cc(Oc3cnc(C(F)(F)F)cn3)ccc2n1)N1CCNCC1 [Example 245, piperazin-1-yl(6-{[5-(trifluoromethyl)pyrazin-2-yl]oxy}quinolin-2-yl)methanone]	4.63 µM
O=C(c1ccc2cc(Oc3ncc(C(F)(F)F)cn3)ccc2n1)N1CCNCC1 [Example 247, piperazin-1-yl(6-{[5-(trifluoromethyl)pyrimidin-2-yl]oxy}quinolin-2-yl)methanone]	13.3 µM
O=C(c1ccc2cc(Oc3ccc(C(F)(F)F)cc3)ccc2n1)N1CCNCC1 [Example 249, piperazin-1-yl {6-[4-(trifluoromethyl)phenoxy]quinolin-2-yl}methanone]	0.902 µM
O=C(c1ccc2cc(Oc3ncc(C(F)(F)F)cc3F)ccc2n1)N1CCNCC1 [Example 250, (6-{[3-fluoro-5-(trifluoromethyl)pyridin-2-yl]oxy}quinolin-2-yl)(piperazin-1-yl)methanone]	1.39 µM
O=C(c1ccc2cc(Oc3ccc(C(F)(F)F)cn3)ccc2n1)N1CCC(O)CC1 [Example 256, (4-hydroxypiperidin-1-yl)(6-{[5-(trifluoromethyl)pyridin-2-yl]oxy}quinolin-2-yl)methanone]	16.4 µM

From US9452986B2, “6-heteroaryloxy- or 6-aryloxy-quinoline-2-carboxamides and method of use” (AbbVie Inc., priority 2014, dated 2016)
